The text below walks through data of US11299472B2, “Fumarate salt of (R)-3-(1-(2,3-dichloro-4-(pyrazin-2-yl)phenyl)-2,2,2- trifluoroethyl)-1-methyl-1-(1-methylpiperidin-4-yl) urea, methods of preparation, and uses thereof” (Helsinn Healthcare SA, priority 2017, dated 2022).

The bioavailability is the share of a dose that reaches the circulation, judged against a reference dose that is usually intravenous. The AUC(0-t) is exposure summed from dosing to a finite time, without extrapolation to infinity. For orientation: Cmax means the maximum level reached in the sampled fluid or tissue. The term Tmax denotes the time from dosing to the highest level. For orientation: IC50 means the concentration that gives 50% inhibition.

Data set [1] is described as follows: Dog pharmacokinetic study, HM04 free base vs HM04 fumarate salt (Example 9). It is filed as in vivo, male Beagle dogs. Here is the method: The pharmacokinetics of HM04 in plasma of male Beagle dogs dosed with a single oral administration of 2 mg/kg HM04 formulated in a solution of 10% DMAC, 6% Solutol, and 84% PBS using either the HM04 free base or HM04 fumarate salt were compared. A comparison of the plasma concentration of HM04 (ng/mL) over time in dogs dosed orally with HM04 free base and HM04 fumarate salt is provided in FIG. 18. Bioavailability was calculated from a dose normalized ratio of the oral mean AUC to the intravenous mean AUC (AUCpo/AUCiv×Doseiv/Dosepo).

Assay in data set [2]: as above
It is filed as in vivo, male Beagle dogs. Particulars: for HM04 plasma concentration: 2 mg/kg oral, mean ± S.D., n=3.

Data set [3] in a line: Rat pharmacokinetic study, single oral HM04 fumarate salt 3, 10, 30 mg/kg (Example 10). It counts as in vivo. Particulars: male, Sprague Dawley, plasma, 3 mg/kg intravenous, four rats, read-out: mean AUC following intravenous administration.
Data set [4] addresses T1, human GHSR1a receptor (Homo sapiens, UniProt Q92847).
T1 construct: expressed in transfected cells; host or cells: HEK293
The experiment in a line: Agonist FLIPR assay in HEK293 cells. It is filed as cell-based. Particulars: FLIPR agonist mode, concentrations up to 10 μM. The method, then:
The compounds were diluted with 100% DMSO to make 30 mM stock. On the test day, serial dilutions were prepared starting from the stock solution. For the FLIPR assay: 1) 8 μl of DMSO was added to 2 μl of compound stock solution (30 mM) to produce 10 μl of 6 mM solution; half-fold serial dilutions of the 6 mM solution were produced to generate ten doses; 2) test solutions were obtained by diluting the stock solutions 1/40 in assay buffer (DMSO concentration 2.5%). For the IP-1 assay: 1) 29 μl of DMSO was added to 1 μl of compound stock solution (30 mM) to produce 30 μl of 1 mM solution; half-fold serial dilutions of the 1 mM solution were produced to generate 10 doses; 2) test solutions were obtained by diluting the stock solutions 1/100 in assay buffer (DMSO final concentration 1%).
(§1) For the agonist and antagonist activity study, HEK293 cells stably expressing human GHSR1a receptor were used in a (FLIPR) assay. […] Fluorescence signal was detected with FLIPR at room temperature according to standard settings for 10 minutes before cells were exposed to 10 μl of 5× working concentrations of agonists (compound added by FLIPR). The fluorescence signal was detected in the subsequent 3 minutes (antagonist mode).

Data set [5] relates to ghrelin-induced increase of GH. The experiment in a line: Ghrelin-induced increase of growth hormone in rats. It counts as in vivo. Particulars: 30 mg/kg HM04 fumarate salt p.o. 2 hours before 15 μg/kg ghrelin i.v., 15 minutes after ghrelin. Here is the method: Rats were divided into four groups: 1) 1 ml/kg saline plus 10 ml/kg 0.5% CMC p.o. (n=6); 2) 15 μg/kg ghrelin i.v. plus 10 ml/kg 0.5% CMC p.o. (n=6); 3) 30 mg/kg HM04 fumarate salt p.o. 2 hours before 15 μg/kg ghrelin i.v. (n=6); 4) 10 mg/kg ghrelin antagonist R011 i.p. 30 minutes before 15 μg/kg ghrelin i.v. (n=6). Blood was collected as 100 μl samples at time 0 and at 15 minutes after ghrelin injection. Rats were anesthetized with 64.8 mg/kg sodium pentobarbital. A catheter filled with heparinized saline solution was inserted in the left femoral artery for blood collection and fitted with an extension tube, 1-mL sampling syringe, and a 3-way cock to allow excess blood to return.
Plasma levels of growth hormone (GH) were determined using Rat GH ELISA (Millipore, Catalog No. EZRMGH-45K). Measurements were performed in duplicate. […] One-way and two-way ANOVA test was used to compare differences between groups. All values are presented as mean±SEM. One-way ANOVA was performed followed by Turkey's post hoc test where significance was indicated by p values<0.05 or p values<0.01.

Data set [6] deals with Snord116+/− (Het) mice and wild-type (WT) littermates. The experiment in a line: Glucose tolerance in Prader-Willi mouse model. It counts as in vivo. An excerpt: (§2) The effect of HM04 fumarate salt on food intake behavior and glucose tolerance was investigated in the Snord116+/−(Het) mouse genetic model of Prader-Willi syndrome (Het mouse) compared to wild-type (WT) littermates. Since D2R agonists suppress food intake, the FDA approved D2R agonist cabergoline was used as an experimental control. Phenotypic characteristics of this PWS mouse model include hyperphagia, postnatal growth retardation, high ghrelin, and low growth hormone. Ding F., et al. SnoRNA Snord116 (Pwcr1/MBII-85) deletion causes growth deficiency and hyperphagia in mice. PloS one. 2008; 3(3):e1709. These PWS mice eat more frequently than WT littermates, particularly during the light cycle and are more motivated to work for food (more level presses) (data not shown).

For data set [7] the test system is unchanged. The experiment in a line: Food intake and body weight after daily administration in Prader-Willi mouse model. It is filed as in vivo.
Source text: as §2
Food intake and body weight were measured daily.

In data set [8] the target is T1, human GHSR1a receptor. The experiment in a line: Antagonist FLIPR assay in HEK293 cells. Particulars: HEK293 cells expressing human GHSR1a, in duplicate, HM04 tested as fumarate salt. It counts as cell-based. Here is the method: The compounds were diluted with 100% DMSO to make 30 mM stock. On the test day, serial dilutions were prepared starting from the stock solution. For the FLIPR assay: 1) 8 μl of DMSO was added to 2 μl of compound stock solution (30 mM) to produce 10 μl of 6 mM solution; half-fold serial dilutions of the 6 mM solution were produced to generate ten doses; 2) test solutions were obtained by diluting the stock solutions 1/40 in assay buffer (DMSO concentration 2.5%). […]
as §1
Data were reported as relative light units (RLUs) and analyzed using GraphPad Software Inc. version 6. The half maximal inhibitory concentration (IC50) measured for HM04 and R011 were calculated by non-linear regression analysis.

Setting [9] is: male, Beagle, plasma, 2 mg/kg oral, mean ± S.D., n=3.
Where [10] appears, read: 6-month-old Het mice, HM04 10 mg/kg i.p. daily at 07.00 hours for 10 days.
The mark [11] stands for this setting: 6-month-old WT mice, HM04 10 mg/kg i.p. daily at 07.00 hours for 10 days.
The mark [12] stands for this setting: 8-month-old Het mice, HM04 30 mg/kg oral daily at 07.00 hours for 5 days.
Setting [13] is: 8-month-old Het mice, HM04 30 mg/kg oral daily at 18.00 hours for 5 days.
Where [14] appears, read: 8-month-old WT mice, HM04 30 mg/kg oral daily at 07.00 hours for 5 days.

T1 sequence (Q92847 whole entry): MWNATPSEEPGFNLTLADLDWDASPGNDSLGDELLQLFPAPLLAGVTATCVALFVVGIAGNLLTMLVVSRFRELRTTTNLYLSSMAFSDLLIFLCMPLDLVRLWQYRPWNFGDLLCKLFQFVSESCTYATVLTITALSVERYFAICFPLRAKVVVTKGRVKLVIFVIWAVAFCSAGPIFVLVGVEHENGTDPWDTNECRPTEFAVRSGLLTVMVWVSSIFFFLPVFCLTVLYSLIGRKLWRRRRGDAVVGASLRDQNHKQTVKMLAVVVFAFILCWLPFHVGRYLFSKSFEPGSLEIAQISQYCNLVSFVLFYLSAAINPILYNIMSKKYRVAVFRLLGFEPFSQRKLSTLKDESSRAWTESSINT

On to `CN1CCC(N(C)C(=O)N[C@H](c2ccc(-c3cnccn3)c(Cl)c2Cl)C(F)(F)F)CC1.O=C(O)/C=C/C(=O)O` [HM04 fumarate salt, (R)-3-(1-(2,3-dichloro-4-(pyrazin-2-yl)phenyl)-2,2,2-trifluoroethyl)-1-methyl-1-(1-methylpiperidin-4-yl)urea fumarate salt], for which the HM04 plasma concentration in data set [1] (2 mg/kg oral, 0.25 hours, mean ± S.D., n=3) is given as 86.6 ± 32.2 ng/mL; in data set [1] (2 mg/kg oral, 0.50 hours, mean ± S.D., n=3) it was 182.4 ± 24.1 ng/mL; in data set [1] (2 mg/kg oral, 2 hours, mean ± S.D., n=3), 219.0 ± 63.6 ng/mL; in data set [2] (1 hour), 227.4 ± 52.2 ng/mL; in data set [2] (4 hours) it was 152.9 ± 56.9 ng/mL; in data set [2] (8 hours), 70.2 ± 41.0 ng/mL. Besides, the HM04 plasma concentration in data set [2] (24 hours) stood at 13.1 ± 13.2 ng/mL. The bioavailability in data set [1] (male, Beagle, plasma, 2 mg/kg oral vs 1 mg/kg intravenous, dose normalized AUC ratio) is 82.3 ± 36.8%. Moreover, the AUC(0-t) in data set [1] (setting [9]) was 1850 ± 828 ng·h/mL. The Cmax in data set [1] (setting [9]) was 230 ± 57.1 ng/mL. Also, the Tmax in data set [1] (setting [9]) was 1.33 ± 0.58 h. Further, the AUC was determined as 1130 ± 364 ng·h/mL in data set [2] (male, Beagle, plasma, 1 mg/kg intravenous, three dogs, read-out: mean AUC following intravenous administration) and 1760 ± 196 ng·h/mL in data set [3].

For `CN1CCC(N(C)C(=O)N[C@H](c2ccc(-c3cnccn3)c(Cl)c2Cl)C(F)(F)F)CC1` [HM04, (R)-3-(1-(2,3-dichloro-4-(pyrazin-2-yl)phenyl)-2,2,2-trifluoroethyl)-1-methyl-1-(1-methylpiperidin-4-yl)urea], in data set [4], the agonist activity entry is given as “No agonist activity was observed”. In data set [5], the “inhibition of ghrelin-induced increase of GH” value worked out at 35%. Also, the glucose tolerance entry was “did not show an improvement in glucose tolerance” in data set [6] (Het mice) and “an effect was observed” in data set [6] (WT mice). Further, the body weight result in data set [7] (setting [10]) is recorded as “no apparent effect”; in data set [7] (setting [11]), “no apparent effect”; in data set [7] (setting [12]), “unaffected”; in data set [7] (setting [14]), “No reduction in food intake or body weight”. The food intake entry in data set [7] (setting [10]) is reported as “no apparent effect”; in data set [7] (setting [11]), “no apparent effect”; in data set [7] (setting [12]), “significant decrease in food intake was observed by day 2, but not on subsequent days”; in data set [7] (setting [14]), “No reduction in food intake”. Moreover, the “food consumption during the dark cycle” value was “suppression of food consumption was not observed” in data set [7] (setting [13]) and “suppression of food consumption was not observed” in data set [7] (8-month-old WT mice, HM04 30 mg/kg oral daily at 18.00 hours for 5 days). The “food intake during the subsequent light cycle (06.00-18.00)” value in data set [7] (setting [13]) was “food intake was lower in HM04-treated Het mice, but not WT mice on days 2, 3, 4, and 5 and reached significance on day 5”. The IC50 in data set [8] is 7.31 nM.
